Article PMC7249060, “The Antiproliferative Effects of Flavonoid MAO Inhibitors on Prostate Cancer Cells” (Molecules, 2020)

Tests used:
LNCaP cells [1] = test: Antiproliferation screen assay, resazurin, 72 h; type: cell-based, human
LNCaP cells [2] = test: cells; type: cell-based, human
Procedure: The morphological alterations of the LNCaP cells were imaged, and their percentage proliferation rate was measured after five-days of incubation. The method of subculture and treatment were similar to our antiproliferation assay, with slight modifications. Briefly, the cells were seeded in transparent flat-bottom 96-well microplates with 10,000 cells/175 μL/well of […] experimental media. Following overnight incubation, 20 μM concentration level (~2 × IC50) for each of KKR11, 20, 7, 2A, 21, and the standard PIRL were added to the cells for a total volume of 200 μL/well and re-incubated for five-days. On the day of imaging, 20X phase-contrast images of lid-covered treated and control cells were captured using an inverted microscope. Resazurin was then added for viability detection, and the imaged cells in the wells were read after 4.5 h on the Bio-Tek Synergy HTX Multi-reader.

hMAO-A = molecular target: T1, hMAO-A (Homo sapiens, UniProt P21397); test: MAO-Glow inhibitory potency (IC50) and relative selectivity; type: biochemical; conditions: mean ± SEM, at least two experiments; LDS 40 μM
T1 construct: purchased Sigma-Aldrich Co. (St. Louis, MO, USA)
T1 sequence (P21397 1-527): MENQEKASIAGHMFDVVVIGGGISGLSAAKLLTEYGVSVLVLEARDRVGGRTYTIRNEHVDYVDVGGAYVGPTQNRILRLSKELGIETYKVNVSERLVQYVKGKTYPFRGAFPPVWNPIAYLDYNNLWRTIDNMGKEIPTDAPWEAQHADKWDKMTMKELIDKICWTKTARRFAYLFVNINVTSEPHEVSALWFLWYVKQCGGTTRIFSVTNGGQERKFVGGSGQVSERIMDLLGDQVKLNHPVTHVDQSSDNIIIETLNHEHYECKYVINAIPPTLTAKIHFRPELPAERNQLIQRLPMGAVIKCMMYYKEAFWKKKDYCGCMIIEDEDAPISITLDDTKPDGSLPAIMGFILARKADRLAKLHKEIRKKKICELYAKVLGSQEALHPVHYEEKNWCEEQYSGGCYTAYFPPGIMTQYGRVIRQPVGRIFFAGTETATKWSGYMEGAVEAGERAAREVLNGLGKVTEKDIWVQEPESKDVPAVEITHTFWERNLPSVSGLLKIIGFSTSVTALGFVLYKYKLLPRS
Procedure: (§1) The inhibitory effects of the synthesized KKRs of hMAO-A and B were tested by measuring the decrease in arbitrary light units (ALU) signal produced by the optimized isozymes using the MAO-Glow™ Assay at 37 °C. In this assay, DMSO stock for each KKR compound was diluted with a reaction buffer of pH 7.4 to make a 4X working solution for a maximum final concentration of 100 μM and ≤1% DMSO. The experiments were run in the absence and presence of 4X the miscellaneous standards of MAO-BIs (DEP, PARG, and SAF) and MAO-AIs (PIRL and CLORG), with similar concentrations. In white opaque 96-well microplates, 12.5 μL of each compound was plated at RT and was followed by 25 μL of 2X cold hMAO-A or hMAO-B, for a final concentration of 0.44 U/mL. A related buffer substituted each isozyme to make the blank wells and substituted each compound to make the negative control wells. Following this, we added 12.5 μL of 4X LDS to make a final substrate concentration of 40- and 4-μM for hMAO-A and hMAO-B, respectively. All screen plates were incubated at 37 °C for 60 min. The plates of 50 μL/well were then taken out from the incubator, and their reactions were stopped by an equal volume of 50 μL of reporter luciferin detection reagent (RLDR). After 30 min, the luminescence signals for all plates were read on a Synergy HTX Multi-reader from Bio-Tek (Winooski, VT, USA).
(§2) The experiments were performed in the presence and absence of the standard PILR. In white opaque 96-well plates, each KKR compound was serially diluted with a reaction buffer of pH 7.4 at the highest possible maximum final concentration, and the least used DMSO (<2%). In blank wells, the related reaction buffer substituted the isozyme. In negative control wells, the reaction buffer substituted each compound concentration. Then, the procedure was carried out as mentioned above (Section 4.2.2), and the reaction was detected on the Bio-Tek Synergy HTX Multi-Reader. The IC50 of each KKR on both isozymes was determined and subsequently the RSA and RSB was calculated.
(§3) Statistical analyses were performed using the GraphPad Prism program (version 6.07 for Windows) from the GraphPad Prism Software Incorporated (San Diego, CA, USA). All data points and parameters were expressed as the mean ± SEM. All parameters were calculated from non-linear and linear regressions with the best R^2 values, no less than 93%. The inhibitory concentration of 50% of isozyme (IC50) of each compound was obtained by the interpolation of a normalized variable slope logarithmic curve. The RSA values of the selected compounds were calculated from their IC50 average means following the equation RSA = hMAO − B IC50/Hmao − A IC50(1)

LNCaP cells [3] = test: Antiproliferation dose-response assay for 72 h; type: cell-based; conditions: Homo sapiens, mean ± SEM of two experiments, read-out: antiproliferative IC50
Procedure: For the top effective KKRs, along with TAX, their potency to reduce the affected PCa cell line growth in a dose-dependent manner was determined using the resazurin fluorescence assay. We followed the same protocols and materials used for the antiproliferation screen assays (Section 4.3.2), with the following modifications. The maximum final KKR concentration used was 40 μM. The concentration of 8X of each KKR working solution in 1% HEPES 7.4 was serially diluted in a 3:1 ratio, compound to buffer, respectively. Each data set was collected from ten data points of 3.7–40 μM range. The control had the KKR substituted with buffer. The related IC50 averages were analyzed for the compounds that affected the cell lines the most.

hMAO-B = molecular target: T2, hMAO-B (Homo sapiens, UniProt P27338); test: MAO-Glow inhibitory potency (IC50); type: biochemical; conditions: mean ± SEM, at least two experiments; LDS 4 μM
T2 construct: purchased Sigma-Aldrich Co. (St. Louis, MO, USA)
T2 sequence (P27338 1-520): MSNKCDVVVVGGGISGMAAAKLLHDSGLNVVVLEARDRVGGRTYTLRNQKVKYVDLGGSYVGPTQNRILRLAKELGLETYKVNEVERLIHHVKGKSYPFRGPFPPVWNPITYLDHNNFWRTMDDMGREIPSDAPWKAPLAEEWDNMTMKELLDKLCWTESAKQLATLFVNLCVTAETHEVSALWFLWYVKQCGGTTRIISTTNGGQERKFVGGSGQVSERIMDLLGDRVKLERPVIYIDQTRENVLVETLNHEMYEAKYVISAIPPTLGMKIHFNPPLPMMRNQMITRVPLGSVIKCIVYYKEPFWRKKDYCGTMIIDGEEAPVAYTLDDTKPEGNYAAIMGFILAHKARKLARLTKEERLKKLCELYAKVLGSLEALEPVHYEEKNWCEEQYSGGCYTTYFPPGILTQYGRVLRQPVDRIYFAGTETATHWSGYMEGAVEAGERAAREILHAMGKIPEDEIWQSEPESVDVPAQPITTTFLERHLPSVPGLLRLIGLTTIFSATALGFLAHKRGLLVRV
Procedure: as §1, §2, §3

LNCaP cells [4] = test: Antiproliferation screen assay, resazurin, 72 h; type: cell-based, human; conditions: 50 μM
Procedure: In this screen, we examined the growth inhibitory effects of all synthesized KKRs on the three human PCa cell lines LNCaP, DU145, and PC3. The antiproliferative clinical drug TAX of 0.25 μM was used as a positive control. Additionally, different standards of MAO-Is and FLUT were tested for their effect on the LNCaP cells. Briefly, the procedures and materials used were the same as for the viability assay except for the following—cultured cells were seeded at 10,000 cells/175-µL/well related experimental media, and the resazurin solution was added after 72 h of incubation with the compounds of 50 μM each.

DU145 cells = test: Scratch migration assay; type: cell-based, human; conditions: preliminary data
Procedure: For in-vitro migration experiments, the PCa metastatic DU145 cell line was used. Cell proliferation and cytotoxicity were monitored for assay validation. The cells (passage # ≤ 10) were grown in fresh media of EMEM 10% FBS, 1% P/S. The cells were seeded in flat-bottom transparent 96-well microplates (100,000 cells/100 μL/well) in EMEM 5% FBS, 1% P/S experimental media. The next day, the confluent cells monolayer was artificially injured by scratching a line across each well, using a 200 μL tip. Immediately, the old media with the detached cells were replaced with 175 μL fresh warm experimental media. Intact cells were then treated with 25 μL of HBSS buffer 7.4 containing tested KKR. In addition to the negative control, KKR11 was tested at gradual concentrations to make finals of 40, 30, 23, 17, and 13 μM. The cells were then incubated for an additional 72 h for gap closure of the control wells.
At the gap closure time point, all cells were subjected to the crystal violet assay that only stains viable cells. Briefly, all media were carefully aspired from cells that were then washed with Ca- and Mg-free PBS. The cells were then fixed with 100 μL 0.25% v/v glutaraldehyde, at 37 °C for 20–30 min incubation time, and dried overnight. The next day, all viable attached cells were stained with a 100 μL crystal violet solution (0.1% in DI-water) for up to 30 min. The solution was then discarded, and the stained cells were kept dry for imaging. Images of the scratched areas were photographed using 10X phase contrast objective lenses of Motic-MXH-100-AE31E-Elite Inverted Microscope.

LNCaP cells [5] = test: Viability screen assay, resazurin, 24 h; type: cell-based, human; conditions: 50 μM, 90% viability as margin of cytotoxicity
Procedure: We examined the cytotoxic effects of all 20 synthesized KKRs on the three human PCa cell lines LNCaP, DU145, and PC3, after a 24 h exposure period. Non-toxic TAX was used for comparison. Briefly, cultured cells were seeded in black transparent bottom 96-well microplates at 50,000 cells/175-µL/well in experimental media (RPMI1640 for LNCaP, EMEM for DU145, and DMEM/F12K for PC3), supplied with 5% FBS and 1% P/S. Wells of media without cells were considered blanks and negative controls. The plates were incubated overnight at 37 °C in 5% CO2 to allow cell attachment. For each compound, a working solution of 8X KKR in sterile […] HEPES in HBSS pH buffer of 7.4 was prepared for a final concentration of 50 μM each. The three attached cell types were treated immediately with the related buffer being added to the control wells. A sterile fluorescence-based solution of the resazurin reagent of 0.5 mg/mL in HBSS was prepared. After 24 h, the cells were exposed to 15% v/v of the sterile resazurin reagent, and the plates were re-incubated for 4.5 h to allow redox reaction. All plates were read under 530/590-nm excitation/emission wavelengths using Bio-Tek Synergy HTX Multi-reader as a microplate fluorescence reader.

Question: How did the “antiproliferative effect of clinical standards” value (LNCaP cells [1]; 10 μM) turn out when `C#CCN(C)[C@H](C)Cc1ccccc1.Cl` [DEP, (R)-(−)-deprenyl HCl] was run?
Answer: none of the standards showed a significant antiproliferative effect

Question: What does the source list for `Cc1ccc2c(c1)c1c3n2CCNC3CCC1` (stereo not drawn) [PIRL, pirlindole, reference compound]?
Answer: antiproliferative effect of clinical standards (LNCaP cells [1]; 10 μM): none of the standards showed a significant antiproliferative effect; effect on LNCaP proliferation and cell morphology (LNCaP cells [2]; 20 μM, five days, phase contrast): neither significant effects on LNCaP proliferation nor apparent changes in cell morphology; viability at 20 µM (LNCaP cells [2]; Homo sapiens, LNCaP, 120 h, read-out: percentage of treated group compared to the viable control): 90%; IC50 (hMAO-A): 12 ± 2 nM; IC50 (LNCaP cells [3]): > 40000 nM; IC50 (hMAO-B): > 800000 nM

Question: `O=C(/C=C/c1ccc2c(c1)OCO2)c1cc(Cl)cc(Cl)c1O` [KKR18, (E)-3-(benzo[d][1,3]dioxol-5-yl)-1-(3,5-dichloro-2-hydroxyphenyl)prop-2-en-1-one] was tested. Which “antiproliferative effect in screen” value (LNCaP cells [4]) did it give?
Answer: top five KKRs that kept standing out with antiproliferative effects

Question: Which “antiproliferative effect of clinical standards” value (LNCaP cells [1]; 0.5 μM) does the source give for `CC(=O)O[C@H]1C(=O)[C@@]2(C)[C@H]([C@H](OC(=O)c3ccccc3)[C@]3(O)C[C@H](OC(=O)[C@H](O)[C@@H](NC(=O)c4ccccc4)c4ccccc4)C(C)=C1C3(C)C)[C@]1(OC(C)=O)CO[C@@H]1C[C@@H]2O` [TAX, paclitaxel, reference compound] here?
Answer: highly effective

Question: And the IC50 (LNCaP cells [3])?
Answer: 210 nM

Question: And the “effect on cell migration” value (DU145 cells)?
Answer: delayed cell migration

Question: For `O=C(/C=C/c1ccccc1)c1cc(Cl)c(Cl)cc1O` [KKR23, (E)-1-(4,5-dichloro-2-hydroxyphenyl)-3-phenylprop-2-en-1-one], which “antiproliferative effect in screen” value (LNCaP cells [4]) is on record?
Answer: top five KKRs that kept standing out with antiproliferative effects

Question: Which “cytotoxicity / cell viability” value (LNCaP cells [5]) does the source give for `COc1cc(OC)c2c(=O)c(O)c(/C=C/c3ccccc3)oc2c1` [KKR16, (E)-3-hydroxy-5,7-dimethoxy-2-styryl-4H-chromen-4-one] here?
Answer: affected the LNCaP cells

Question: For `COc1cc(-c2cc(=O)c3ccccc3o2)cc(OC)c1OC` [KKR22, 2-(3,4,5-trimethoxyphenyl)-4H-chromen-4-one], which “cytotoxicity / cell viability” value (LNCaP cells [5]) is on record?
Answer: affected the LNCaP cells

Question: How did the “antiproliferative effect of clinical standards” value (LNCaP cells [1]; 10 μM) turn out when `CC(C)C(=O)Nc1ccc([N+](=O)[O-])c(C(F)(F)F)c1` [FLUT, flutamide] was run?
Answer: none of the standards showed a significant antiproliferative effect
